In patent US8652799B2, “Method of detecting bioactive molecules in a fluid sample” (priority 2008, dated 2014):
Where two headings read alike, the source gives them in different places.

What was measured:
Type in all cases: cell-based
[1] = test system: Chlorella vulgaris
Procedure: The algae concentration was 5×10^6 cells/mL (100 μL of algae within 2 mL of aqueous solution (i.e. distilled water)) containing the substance to detect at indicated concentrations. For each substances, 5 concentrations in triplicates were tested. The TOXSTAT™ software was used to calculate from inhibition values and standard deviations obtained, the maximum concentration without observable effect and the minimal concentration with observable effects. The threshold was calculated with the following formula: (maximum concentration without observable effect x minimal concentration with observable effects)^1/2 (See Table 2 below). The temperature was controlled by a thermostatic bath.
(§1) The detection threshold was obtained with the geometric mean. It was calculated with the following formula: Detection threshold=(CSEO×CMEO)^1/2 where
(§2) CMEO=minimal concentration resulting in a detectable inhibition of the algae efficacy.
(§3) CSEO and CMEO were estimated by a variance analysis ANNOVA™ followed by a Dunnett multiple comparison by comparing the mean efficacy of each tested concentration with the control mean. Calculations were performed with TOXSTAT™ (Version 3.5).

[2] = test system: Chlorella vulgaris; settings: for Inhibition: 0.5 ppm
Procedure: (§4) A Chlorella vulgaris culture was prepared as described in Example 1 above. As indicated in Example 1, the algae were reactivated before testing under ambient light and at room temperature during 90 minutes.
The formulation was then incubated under ambient light at 35° C. and at neutral pH with cadmium, copper, chromium, zinc, nickel, or lead, at indicated concentrations at incubation times varying between 15 minutes and 120 minutes. (FIGS. 9 to 12). The formulations were tested without additives or with 1 ppm cadmium, 0.1 ppm copper or 0.25 ppm copper as additive. The cellular concentration was 2.5×10^6 cells/mL (50 μL of algae within 2 mL of metal containing aqueous solution (i.e. distilled water)). Testing was performed in triplicates. The fluorescence emitted by each formulation was then measured with Luminotox™, a fluorometer that measures photosynthetic activity.

[3] = test system: Chlorella vulgaris; test: Stability of F2 fluorescence of Chlorella vulgaris incubated with additives
Procedure: F2 fluorescence levels produced by Chlorella vulgaris prepared as described in Example 1 above was measured after incubation with additives tested above, namely cadmium (0.5 ppm), cadmium (1 ppm), copper (0.1 ppm) and copper (0.25 ppm). As may be seen in FIG. 8, F2 fluorescence was stable after up to 120 minutes of incubation for each of these additives.

[4] = test system: Chlorella vulgaris; test: Inhibition of fluorescence emission of Chlorella vulgaris incubated at 35° C.; settings: 15 minutes
Procedure: The present invention also concerns a method for ammonia nitrogen detection comprising changing algal cell permeability. This compound is detected at 100 ppm at neutral pH but the increment of pH up to 11 decreases the threshold to 1 ppm. Algal permeability can also be modified by increasing the incubation temperature of the assay. For example, fluorescence emission is inhibited in 15 minutes by copper ions, tetracycline and progesterone if Chlorella vulgaris is incubated at 35° C., while at room temperature the detection of these compounds in 15 minutes was possible when these compounds are present at higher concentrations. Chlorella vulgaris is a freshwater alga and is used for freshwater monitoring while Dunaliella tertiolecta is used of for marine water monitoring.

[5] = test system: Dunaliella tertiolecta; settings: 15 min. green light exposition at room temperature
Procedure: as §1, §2, §3
(§5) A Dunaliella tertiolecta culture was prepared as described in Example 2 above. As indicated in Example 2, the algae were reactivated before testing under ambient light and at room temperature during 45 minutes.
The algae formulations were then incubated for 15 minutes with water containing one of the various contaminants listed in Table 2 below at neutral pH under green light and at room temperature. The algae concentration was 350 000 cells/mL (500 μL of algae within 2 mL of aqueous solution (i.e. distilled water) containing substance to detect at indicated concentrations). For each substances, 5 concentrations in triplicates were tested. The TOXSTAT™ software was used to calculate from inhibition values and standard deviations obtained, the maximum concentration without observable effect and the minimal concentration with observable effects (See Table 2 below). The temperature was controlled by a thermostatic bath. Tests were performed in triplicates. The fluorescence emitted by each formulation was then measured with Luminotox™, a fluorometer that measures photosynthetic activity and detection threshold determined as described in the Example above.

[6] = test system: Chlorella vulgaris; test: Detection of lead with Chlorella vulgaris with single additives or additive mixtures
Procedure: as §4
The formulation was then incubated under ambient light at 35° C. and at neutral pH with lead, at indicated concentrations and at incubation times varying between 15 minutes and 120 minutes (FIGS. 13 to 16). The formulations were tested with or without additives used as single additives (Cd 1 ppm, Cu 0.1 ppm and Cu 0.25 ppm) or mixes of additives (Cu 0.1 ppm+Cd 0.5 ppm; Cu 0.1 ppm+Cd 1 ppm; Cu 0.25 ppm+Cd 1 ppm). The cellular concentration was 2.5×10^6 cells/mL (50 μL of algae within 2 mL of lead containing aqueous solution (i.e. distilled water) with or without additives). Testing was performed in triplicates. The fluorescence emitted by each formulation was then measured with Luminotox™ a fluorometer that measures photosynthetic activity.

[7] = test system: Anabaena sp.; test: Detection of bioactive molecules with Anabaena sp.: inhibition of photosynthetic fluorescence (Luminotox); settings: 1 ppm, neutral pH; for inhibition at 1 ppm: 10 min
Procedure: The photosynthetic efficiency is determined with the following formula (F2−F1)/F2. Any molecule affecting directly or indirectly the photosystems modify either F1 or F2 which modification necessarily decreases the photosynthetic efficiency. The inhibition curve of a particular molecule is determined by calculating the activity of the photosystems in the absence of the molecule and in the presence of the molecule and comparing both efficiency as follows as described in Conrad 1993:
Without Inhibitor (wi): efficiency(wi)=(F2(wi)−F1(wi)/F2(wi) With Inhibitor: Relative photosynthetic efficiency(sample)=(F2(sample)−F1(sample))/F2(wi) Percentage Efficiency: efficiency (%)=(efficiency(sample)×100)/efficiency(wi) Percentage Inhibition: Inhibition (%)=100−efficiency (%)
An Anabaena sp. culture was prepared as described in Example 3 above. As indicated in Example 3, the cyanobacteria were reactivated before testing under ambient light and at room temperature during 60 minutes.
The culture was then incubated with bioactive molecules listed in Table 1 below at concentrations of 1 ppm (except for atrazine which was used at a concentration of 1 ppb) for 10 minutes under ambient light followed by 10 minutes under green light and neutral pH. The cellular concentration was 1.0×10^7 cells/mL (100 μL of cyanobacteria within 2 mL of bioactive agent containing aqueous solution (i.e. distilled water)). Testing was performed in triplicates. The fluorescence emitted by each formulation was then measured with Luminotox™ a fluorometer that measures photosynthetic activity.

[8] = test system: Dunaliella tertiolecta; test: Progesterone detection with Dunaliella tertiolecta, green light versus white light then green light; settings: 0.25 h, 15 min green light only, 350 000 cells/mL, read-out: Maximum percentage inhibition
Procedure: as §5
The formulation was then incubated with progesterone at concentrations of 0; 0.05; […] or 1 ppm for 15 minutes under green light only or for 15 minutes under ambient light followed by 5 to 35 minutes under green light. The cellular concentration was 350 000 cells/mL (500 μL of algae within 2 mL of progesterone containing aqueous solution (i.e. distilled water)). Testing was performed in triplicates. The fluorescence emitted by each formulation was then measured with Luminotox™, a fluorometer that measures photosynthetic activity.

[9] = test system: Chlorella vulgaris; test: Effect of pH on detection of ammoniacal nitrogen with Chlorella vulgaris; settings: for Concentration of NH3 at which 20% inhibition was achieved: 10 min green light, room temperature
Procedure: A Chlorella vulgaris culture was prepared as described in Example 1 above. As indicated above, the algae were reactivated before testing during 90 minutes under ambient light and at room temperature.
The culture was then incubated with ammoniacal nitrogen for 10 minutes under green light and at room temperature. The desired pH was achieved by adding NaOH to a glycine 20 mM buffer. The cellular concentration of the algae was 5×10^6 cells/mL of solution (100 μL algae in 2 mL of ammoniacal nitrogen containing aqueous solution (i.e. distilled water)). Testing was performed in triplicates. The fluorescence emitted by each formulation was then measured with Luminotox™, a fluorometer that measures photosynthetic activity. Although the Luminotox™ was used in Examples presented herein, any fluorometer able to measure […] can be used in accordance with the present invention.

[10] = 10-15 min. exposition to ambiant light at 35° C., neutral pH (pH 7), 5×10^6 cells/mL
[11] = 1 ppm, 60 minutes of incubation, without additive
[12] = neutral pH (pH 7), 350 000 cells/mL
[13] = 10 min ambient light followed by 10 min green light
[14] = 10 min ambient light, 1.0×10^7 cells/mL
[15] = 10 min ambient light followed by 10 min green light, read-out: Inhibition obtained at 1 ppm (followed by 10 min green light)
[16] = 10 min ambient light, 1.0×10^7 cells/mL, read-out: Inhibition obtained at 1 ppm (10 min ambiant light)

[Cd] [Cd, Cadmium]
Detection threshold [1, 10]: 0.3 ppm | Detection ([2]; 1 ppm alone, 15 minutes of incubation): not detected | Detection [2, 11]: detected although weakly | F2 fluorescence over time ([3]; 0.5 ppm, up to 120 minutes of incubation): stable | F2 fluorescence over time ([3]; 1 ppm, after 120 minutes of incubation): decrease of fluorescence

[Cr] [Cr, Chrome]
Detection ([2]; 0.1 ppm, 60 minutes of incubation, without additive): detected although weakly

[Cu] [Cu, Copper]
Detection threshold [1, 10]: 0.25 ppm | Detection ([2]; 0.25 ppm, 60 minutes of incubation, without additives): not detected | Inhibition ([2]; 15 minutes of incubation, cadmium 1 ppm as additive): 30% | Inhibition ([2]; 15 minutes of incubation, without additive, ambient light 35° C.): 15% | F2 fluorescence over time ([3]; 0.1 ppm, up to 120 minutes of incubation): stable | F2 fluorescence over time ([3]; 0.25 ppm, up to 120 minutes of incubation): stable | Fluorescence emission [4]: inhibited

CN(C)C(=O)Nc1ccc(Cl)c(Cl)c1 [Diuron]
Detection threshold [1, 10]: 0.006 ppm | Detection threshold ([1]; 10-15 min. green light exposition at room temperature, neutral pH (pH 7), 5×10^6 cells/mL): <0.0005 ppm | Detection threshold ([1]; 10-15 min. green light exposition at room temperature, neutral pH (pH 7), 5×10^6 cells/mL, listed as diuron): lower than 0.0005 ppm | Detection threshold [5, 12]: 0.002 ppm

[Pb] [Pb, Lead]
Detection threshold [1, 10]: <0.5 ppm | Detection [2, 11]: detected although weakly | Concentration of lead detected ([6]; 15 minutes of incubation, with mixtures of additives): 1 ppm | Concentration of lead detected ([6]; 30 minutes of incubation, mixture Cu 0.1 ppm+Cd 1 ppm): 0.1 ppm | Concentration of lead whose detection was increased ([6]; 60 minutes of incubation, all additive mixtures): ≥ 0.1 ppm | Concentration of lead detected ([6]; 120 minutes of incubation, additive mixtures Cu 0.1 ppm+Cd 0.5 ppm and Cu 0.25 ppm+Cd 1 ppm): 0.01 ppm

CNC(=O)O/N=C/C(C)(C)SC [aldicarbe]
Inhibition obtained at 1 ppm (followed by 10 min green light) [7, 13]: 30% | Inhibition obtained at 1 ppm (10 min ambiant light) [7, 14]: 0%

CC(C)N1C(=O)c2ccccc2NS1(=O)=O [bentazone]
inhibition at 1 ppm [7, 15]: 28% | inhibition at 1 ppm [7, 16]: 0%

CCOP(=S)(OCC)Oc1nc(Cl)c(Cl)cc1Cl [chlorpyrifos]
inhibition at 1 ppm [7, 15]: 10% | inhibition at 1 ppm [7, 16]: 0% | Detection threshold [1, 10]: 1 ppm | Detection threshold [5, 12]: 1 ppm

COP(=O)(OC)O/C(C)=C/C(=O)N(C)C [dicrotophos]
inhibition at 1 ppm [7, 15]: 17% | inhibition at 1 ppm [7, 16]: 2% | Detection threshold [5, 12]: 235 ppm

O=C(O)CNCP(=O)(O)O [glyphosate]
inhibition at 1 ppm [7, 15]: 7% | inhibition at 1 ppm [7, 16]: 0% | Detection threshold [1, 10]: 100 ppm | Detection threshold [5, 12]: 50 ppm

CCOC(=O)CC(SP(=S)(OC)OC)C(=O)OCC (stereo not shown) [malathion]
inhibition at 1 ppm [7, 15]: 17% | inhibition at 1 ppm [7, 16]: 0% | Detection threshold [5, 12]: 50 ppm

CCc1cccc(C)c1N(C(=O)CCl)C(C)COC (stereo not shown) [metolachlor]
inhibition at 1 ppm [7, 15]: 22% | inhibition at 1 ppm [7, 16]: 0%

[Ni] [nickel]
Detection ([2]; 1 ppm, 120 minutes of incubation): weakly detected

CC(=O)[C@H]1CC[C@H]2[C@@H]3CCC4=CC(=O)CC[C@]4(C)[C@H]3CC[C@]12C [progesterone]
inhibition at 1 ppm [8]: 40% | Fluorescence emission [4]: inhibited

Ammonia nitrogen
Detection threshold ([1]; pH 11, 10-15 min. exposition to ambiant light at 35° C.): 1 ppm at pH 11 | Detection threshold ([1]; pH 11, 10-15 min. green light exposition at room temperature): 1 ppm at pH 11 | Detection threshold ([5]; pH 11): 1 ppm at pH 11 | Concentration at which the compound is detected ([9]; neutral pH): 100 ppm | Concentration of NH3 at which 20% inhibition was achieved ([9]; pH 7): 100 ppm | Concentration of NH3 at which 20% inhibition was achieved ([9]; pH 9): 5 ppm | Concentration of NH3 at which 20% inhibition was achieved ([9]; pH 11): lower than 2 ppm | Concentration of NH3 at which 20% inhibition was achieved ([9]; pH 12): lower than 2 ppm | Detection threshold ([9]; pH up to 11): 1 ppm

Mercury [Hg]
Detection threshold [1, 10]: 0.22 ppm

cyanure
Inhibition obtained at 1 ppm (followed by 10 min green light) [7, 13]: 16% | Inhibition obtained at 1 ppm (10 min ambiant light) [7, 14]: 0% | Detection threshold [1, 10]: 0.16 ppm

gramicidine
Inhibition obtained at 1 ppm (followed by 10 min green light) [7, 13]: 15% | Inhibition obtained at 1 ppm (10 min ambiant light) [7, 14]: 0%
